Results as given in patent publication US5183828A, “Polyhydroxybenzoic acid derivatives” (priority 1990, dated 1993).

Experiments:
isolated rabbit hearts = assay: contractile function in isolated Langendorff rabbit heart after global ischemia and reperfusion, Table 9; design: species or system New Zealand white rabbits; conditions: 30 min global ischemia, 45 min reperfusion; bolus of 10 mM solution then 100 uM over first min; control 49 ± 9 (p<0.01)
Text: The compounds of this invention, as represented by the above formula, are useful in treating ischemia reperfusion injury, presumably because of their free-radical scavenging ability. The following protocol illustrates this activity on the ischemia produced during treatment of coronary artery disease.
(§1) Female New Zealand white rabbits (2 kg) were heparinized and anesthetized and their hearts removed. The isolated rabbit hearts were perfused by the method of Langendorff at a constant pressure of 80 mm Hg with a Krebs-bicarbonate-buffered perfusate which was bubbled with 95% O2, 5 % CO2 gas. Chelex-treated perfusate was prepared by eluting the solution through a column of chelex 100 resin which was pre-equilibrated with 4 volumes of the perfusate solution. All perfusate solutions were routinely filtered through 0.8 um millipore filters prior to use. Heart rate and left ventricular developed pressure were measured using a fluid-filled balloon secured into the left ventrile. The balloon was connected to a Statham P23 DB pressure transducer via a hydraulic line and the transducer output amplified to a strip chart recorder. The ventricular volume was adjusted to achieve a left ventricular end disastolic pressure of 12 mmHg. During periods of global ischemia, the balloon was deflated and then reinflated 15 min after reflow. […]

[1] = test system: DMPO-OH and DMPO-R radical adducts in coronary effluent of reperfused rabbit hearts; assay: EPR spin trapping (DMPO) on coronary effluent of reperfused rabbit hearts; design: species or system New Zealand white rabbits
Protocol: as §1, with “recorder.” for “recorder. The ventricular volume was adjusted to achieve a left ventricular end disastolic pressure of 12 mmHg. During periods of global ischemia, the balloon was deflated and then reinflated 15 min after reflow.”
EPR spectra were recorded in flat cells at room temperature with either Varian E-9 or Bruker-IBM ER 300 spectrometers operating at X-band using 100 kHz modulation frequency and with TE 104 or TM 110 cavities. The microwave frequency and magnetic field were precisely measured using a Hewlett Packard 5342A Microwave Frequency counter and Bruker ER 035M NMR Gaussmeter. […] Quantitation of the free radical signals was performed by comparing the double integral of the observed signal to that of a known concentration of the tempo free radical in aqueous solution. […]

[2] = test system: superoxide (xanthine oxidase reaction or human leukocytes); assay: effect on superoxide generation in vitro; format: biochemical
Protocol: The rate of production of superoxide from the xanthine oxidase reaction or from human leukocytes activated with phorbol myristate acetate was measured spectrophotometrically as the superoxide dismutase (SOD)-inhibitable portion of the reduction of ferricytochrome c or nitroblue tetrazolium (NBT). All assays were carried out at 37° C., pH 7.1. For the superoxide production by the xanthine oxidase reaction, a concentration of 0.04 U/ml of xanthine oxidase was used with 0.1 mM xanthine as substrate. Absorbances were measured in the presence of 30 U/ml of SOD and in its absence. The indicators were either ferricytochrome c or NBT in a concentration of 20 uM. The initial rate of reduction of NBT was monitored at 530 nm and that of cytochrome c at 550 nm. Extinction coefficients were 21.4×10 ^3 /M cm for cytochrome c and 17.9×10^3 /M cm for NBT. The initial rate of production of superoxide from leukocytes was measured using a concentration of 20 uM ferricytochrome c or NBT as described above in the presence and absence of 30 U/ml of SOD.

Q: Which results are given for `NC(=NO)c1cc(O)c(O)c(O)c1` [3,4,5-trihydroxybenzamidoxime]?
A: Left ventricular developed pressure (isolated rabbit hearts): 67±9 mm Hg; DMPO-OH and DMPO-R EPR signals upon reperfusion ([1]; 40 mM DMPO, post-ischemic reperfusion with drug): not observed; new radical EPR signal on reperfusion with drug ([1]; with or without DMPO): appears as a single broad peak centered at 3480 G; Cytochrome C Reduction ([2]; 10 uM compound): 4.73 nmol; NBT Reduction ([2]; 10 uM compound): 5.35 nmol; Cytochrome C Reduction ([2]; 20 uM compound): 4.56 nmol; NBT Reduction ([2]; 20 uM compound): 5.06 nmol; Cytochrome C Reduction ([2]; 50 uM compound): 5.38 nmol; NBT Reduction ([2]; 50 uM compound): 2.55 nmol; Cytochrome C Reduction ([2]; 100 uM compound): 6.06 nmol; NBT Reduction ([2]; 100 uM compound): 1.14 nmol; Cytochrome C Reduction ([2]; 200 uM compound): 6.50 nmol; NBT Reduction ([2]; 200 uM compound): 0.81 nmol; Cytochrome C Reduction ([2]; 300 uM compound): 6.25 nmol; NBT Reduction ([2]; 300 uM compound): 0.71 nmol; Cytochrome C Reduction ([2]; 500 uM compound): 5.81 nmol; NBT Reduction ([2]; 500 uM compound): 0.87 nmol
